Measured values: US6267945A, “Farnesol-related calcium channel blockers” (NeuroMed Technologies, Inc., priority 1998, dated 2001)
Where two headings read alike, the source gives them in different places. Values belong to the molecule of their own block, whether it stands above or below them.

Experiments:
[1] = molecular target: T1, N-type calcium channel (α1B + α2 + β1b) (Rattus norvegicus, UniProt Q02294); experiment: Inactivation of N-type calcium channels (steady state inactivation, shift in V0.5), whole cell patch clamp; assay type: cell-based
T1 construct: expressed in transfected cells; host or cells: HEK293 cells stably expressing, or HEK TSA 201 cells transiently transfected with, α1B + α2 + β1b
T1 sequence (Q02294 whole entry): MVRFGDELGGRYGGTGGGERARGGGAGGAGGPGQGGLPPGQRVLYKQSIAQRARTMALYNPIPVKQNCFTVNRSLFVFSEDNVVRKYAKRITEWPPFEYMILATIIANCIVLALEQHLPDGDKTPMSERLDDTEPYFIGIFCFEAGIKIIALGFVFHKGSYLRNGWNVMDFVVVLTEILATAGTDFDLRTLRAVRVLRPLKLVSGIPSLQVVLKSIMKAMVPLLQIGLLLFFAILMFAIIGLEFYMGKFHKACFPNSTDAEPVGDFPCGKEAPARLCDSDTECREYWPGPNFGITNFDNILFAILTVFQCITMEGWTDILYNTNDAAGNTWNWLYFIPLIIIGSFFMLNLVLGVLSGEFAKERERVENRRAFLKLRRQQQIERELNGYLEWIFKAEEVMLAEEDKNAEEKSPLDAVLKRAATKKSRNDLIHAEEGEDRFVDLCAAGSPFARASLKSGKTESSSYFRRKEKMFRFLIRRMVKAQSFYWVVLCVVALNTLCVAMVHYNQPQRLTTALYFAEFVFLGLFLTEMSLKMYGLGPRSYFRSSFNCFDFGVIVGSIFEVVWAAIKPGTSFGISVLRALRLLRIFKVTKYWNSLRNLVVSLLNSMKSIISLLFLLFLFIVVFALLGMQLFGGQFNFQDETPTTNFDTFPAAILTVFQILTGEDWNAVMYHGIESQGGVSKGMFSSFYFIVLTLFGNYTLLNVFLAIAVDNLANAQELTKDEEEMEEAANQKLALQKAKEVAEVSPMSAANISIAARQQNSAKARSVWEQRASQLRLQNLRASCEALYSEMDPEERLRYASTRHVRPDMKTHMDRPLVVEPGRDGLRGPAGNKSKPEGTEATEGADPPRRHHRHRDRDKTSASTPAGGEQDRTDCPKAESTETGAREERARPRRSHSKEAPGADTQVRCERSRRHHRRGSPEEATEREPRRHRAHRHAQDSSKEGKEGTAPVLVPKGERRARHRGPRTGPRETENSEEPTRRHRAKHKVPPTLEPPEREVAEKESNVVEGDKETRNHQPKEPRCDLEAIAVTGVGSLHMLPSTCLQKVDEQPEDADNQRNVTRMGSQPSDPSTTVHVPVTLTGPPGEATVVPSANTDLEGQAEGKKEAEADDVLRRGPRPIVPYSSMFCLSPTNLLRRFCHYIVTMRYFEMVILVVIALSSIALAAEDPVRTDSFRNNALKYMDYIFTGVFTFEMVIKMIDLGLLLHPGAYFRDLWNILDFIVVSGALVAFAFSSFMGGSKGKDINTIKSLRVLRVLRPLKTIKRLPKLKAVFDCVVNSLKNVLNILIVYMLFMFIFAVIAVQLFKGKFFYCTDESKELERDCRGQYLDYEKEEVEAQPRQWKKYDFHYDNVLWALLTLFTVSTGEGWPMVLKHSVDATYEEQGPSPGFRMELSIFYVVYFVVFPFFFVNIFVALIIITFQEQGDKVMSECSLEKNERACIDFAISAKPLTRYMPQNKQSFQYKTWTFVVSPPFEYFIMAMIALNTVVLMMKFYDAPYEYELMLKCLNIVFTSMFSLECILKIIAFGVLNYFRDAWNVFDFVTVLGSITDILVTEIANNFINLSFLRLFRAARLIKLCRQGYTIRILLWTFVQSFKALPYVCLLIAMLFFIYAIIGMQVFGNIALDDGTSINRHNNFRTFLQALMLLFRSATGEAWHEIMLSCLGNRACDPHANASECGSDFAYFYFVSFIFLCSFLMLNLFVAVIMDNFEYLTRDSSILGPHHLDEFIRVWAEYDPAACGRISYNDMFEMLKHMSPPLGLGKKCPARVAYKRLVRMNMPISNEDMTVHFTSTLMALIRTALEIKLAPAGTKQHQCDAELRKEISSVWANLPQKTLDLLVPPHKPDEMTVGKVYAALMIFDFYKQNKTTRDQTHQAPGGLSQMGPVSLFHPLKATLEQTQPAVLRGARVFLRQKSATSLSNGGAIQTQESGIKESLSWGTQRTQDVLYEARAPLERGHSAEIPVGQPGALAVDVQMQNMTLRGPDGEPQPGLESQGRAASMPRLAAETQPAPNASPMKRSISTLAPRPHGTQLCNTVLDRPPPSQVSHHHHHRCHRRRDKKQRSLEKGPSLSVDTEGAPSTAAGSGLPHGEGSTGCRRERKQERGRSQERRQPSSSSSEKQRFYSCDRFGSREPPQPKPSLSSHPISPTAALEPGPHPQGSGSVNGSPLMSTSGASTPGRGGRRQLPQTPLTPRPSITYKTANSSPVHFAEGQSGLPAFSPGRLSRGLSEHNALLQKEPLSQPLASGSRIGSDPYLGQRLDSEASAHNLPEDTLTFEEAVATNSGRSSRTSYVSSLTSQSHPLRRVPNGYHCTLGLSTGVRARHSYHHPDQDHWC
T1 sequence (P54290 25-944 partner limits assumed): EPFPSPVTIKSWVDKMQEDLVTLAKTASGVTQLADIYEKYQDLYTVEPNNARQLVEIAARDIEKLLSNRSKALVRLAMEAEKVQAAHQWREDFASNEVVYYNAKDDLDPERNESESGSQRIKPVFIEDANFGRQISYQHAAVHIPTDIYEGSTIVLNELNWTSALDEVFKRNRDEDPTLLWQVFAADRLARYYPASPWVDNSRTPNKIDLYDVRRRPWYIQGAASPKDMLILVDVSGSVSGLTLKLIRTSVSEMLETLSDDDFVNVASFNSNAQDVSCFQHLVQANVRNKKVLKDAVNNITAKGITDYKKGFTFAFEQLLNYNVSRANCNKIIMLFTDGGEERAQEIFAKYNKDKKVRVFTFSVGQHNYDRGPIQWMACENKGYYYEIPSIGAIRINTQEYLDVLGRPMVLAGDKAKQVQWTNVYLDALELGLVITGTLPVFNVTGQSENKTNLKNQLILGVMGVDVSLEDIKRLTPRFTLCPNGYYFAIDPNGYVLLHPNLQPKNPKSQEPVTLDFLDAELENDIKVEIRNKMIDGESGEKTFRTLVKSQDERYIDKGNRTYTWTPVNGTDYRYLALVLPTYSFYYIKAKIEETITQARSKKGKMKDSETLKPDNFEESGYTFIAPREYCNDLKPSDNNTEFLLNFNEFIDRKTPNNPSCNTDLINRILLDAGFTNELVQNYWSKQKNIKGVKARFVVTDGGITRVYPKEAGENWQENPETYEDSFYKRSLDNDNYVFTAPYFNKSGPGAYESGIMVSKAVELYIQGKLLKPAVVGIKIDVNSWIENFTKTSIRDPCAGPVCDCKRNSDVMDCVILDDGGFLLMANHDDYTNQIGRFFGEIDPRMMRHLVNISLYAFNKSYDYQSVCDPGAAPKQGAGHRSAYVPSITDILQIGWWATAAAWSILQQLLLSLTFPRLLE
T1 sequence (P54290 945-1091 partner limits assumed): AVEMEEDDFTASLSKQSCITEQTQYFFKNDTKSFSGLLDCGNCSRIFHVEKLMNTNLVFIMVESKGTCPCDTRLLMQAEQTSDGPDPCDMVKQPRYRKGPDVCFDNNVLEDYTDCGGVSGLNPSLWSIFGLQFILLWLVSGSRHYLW
T1 sequence (P54283 whole entry partner): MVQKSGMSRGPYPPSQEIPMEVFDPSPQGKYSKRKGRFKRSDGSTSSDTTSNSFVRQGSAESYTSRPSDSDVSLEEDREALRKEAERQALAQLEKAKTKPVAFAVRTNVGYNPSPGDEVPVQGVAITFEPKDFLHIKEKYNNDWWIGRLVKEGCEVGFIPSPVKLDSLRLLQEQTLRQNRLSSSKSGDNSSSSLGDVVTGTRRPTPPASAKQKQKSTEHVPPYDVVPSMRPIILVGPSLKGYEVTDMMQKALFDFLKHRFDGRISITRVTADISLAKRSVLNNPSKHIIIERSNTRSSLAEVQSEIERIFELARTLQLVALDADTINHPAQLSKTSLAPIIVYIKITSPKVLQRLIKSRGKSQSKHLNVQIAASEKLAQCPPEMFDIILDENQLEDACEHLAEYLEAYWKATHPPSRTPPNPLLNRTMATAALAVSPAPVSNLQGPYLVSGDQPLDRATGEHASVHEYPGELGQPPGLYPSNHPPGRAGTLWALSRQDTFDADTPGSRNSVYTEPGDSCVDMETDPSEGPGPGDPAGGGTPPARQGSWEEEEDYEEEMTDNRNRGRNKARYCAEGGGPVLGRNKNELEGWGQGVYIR
From the text: (§1) There are two distinguishable types of calcium channel inhibition. […] A second type of block is referred to herein as "inactivation inhibition." When maintained at less negative resting potentials, such as the physiologically important potential of -70 mV, a certain percentage of the receptor channels may undergo conformational change, rendering them incapable of being activated--i.e., opened--by the abrupt depolarization. Thus, the peak current due to calcium ion flow will be diminished not because the open channel is blocked, but because some of the channels are unavailable for opening (inactivated). "Inactivation" type inhibitors increase the percentage of receptors that are inactivated.
(§2) As described above, a more definitive assay can be used to distinguish inhibitors of calcium flow which operate as open channel blockers, as opposed to those that operate by promoting inactivation of the channel. The methods to distinguish these types of inhibition are more particularly described in the examples below. In general, open-channel blockers are assessed by measuring the level of peak current when deploarization is imposed on a background resting potential of about -100 mV in the presence and absence of the candidate compound. Successful open-channel blockers will reduce the peak current observed and accelerate the decay of this current. Compounds that are inactivated channel blockers are determined by their ability to shift the voltage dependence of inactivation towards more negative potentials. This is also reflected in their ability to reduce peak currents at more depolarized holding potentials(e.g., -70 mV).
(§3) Human embryonic kidney TSA 201 cells were grown in standard DMEM medium, supplemented with 10% fetal bovine serum and 0.4 mg/ml neomycin. The cells were grown to 80% confluency, split with trypsin EDTA and plated on glass coverslips at 10% confluency 12 hours prior to transfection. Immediately prior to transfection, the medium was replaced and the cells were transiently transfected with cDNAs encoding calcium channel α1B, β1b and α2 subunits (at a 1:1:1 molar ratio) using a standard calcium phosphate protocol. After 12 hours, the medium was replaced with fresh DMEM and the cells were allowed to recover for 12 hours. Subsequently the cells were incubated at 28° C. in 5% CO2 for 1-2 days prior to recording. Human embryonic kidney cells stably expressing N-type α1B +α2 +β1b were maintained and plated for electrophysiological recordings as described by Zamponi, G. W. et al., Nature (1997) 385:442-446.
(§4) Immediately prior to recording, individual cover slips were transferred to a 3 cm culture dish containing an external recording solution. The external recording solution was 20 mM BaCl2, 1 mM MgCl2, 10 mM HEPES, 40 mM TEACl, 10 mM glucose, 65 mM CsCl (pH 7.2) or 5 mM BaCl2, 1 mM MgCl2, 10 mM HEPES, 40 mM TEACl, 10 mM glucose, 87.5 mM CsCl (pH 7.2). […] The internal pipette solution is 105 mM CsCl, 25 mM TEACl, 1 mM CaCl2, 11 mM EGTA, 10 mM HEPES (pH 7.2). Whole cell patch clamp experiments were performed using an Axopatch 200B amplifier (Axon Instruments, Burlingame, Calif.) linked to an IBM compatible personal computer equipped with pCLAMP 6.0 software. Currents were typically elicited from a holding potential of -100 mV to various test potentials. The compounds to be tested were prepared as stock solutions in ethanol and diluted into the recording solution at the appropriate final concentrations, and perfused directly onto the cells using a gravity driven microperfusion system. At the applicable concentrations, ethanol by itself had no effect on calcium channel activity. Data were filtered at 1 kHz and recorded directly on the hard drive of a personal computer. The data were analyzed using ClampFit (Axon Instruments). Curve fitting was carried out in Sigmaplot 4.0 (Jandel Scientific). Steady state inactivation curves were fitted with a Boltzman equation,
Ipeak(normalized) =1/(1+exp((V-Vh)Z/25.6)) […]

[2] = molecular target: T1, N-type calcium channel (α1B + α2 + β1b); experiment: Open-channel block of N-type calcium channels, whole cell patch clamp, holding potential -100 mV; assay type: cell-based; conditions: for inhibition at 10 µM: read-out: Open/Resting Block (determined at 10 μM); for normalized peak height: -100 mV to +20 mV
From the text: as §1, §2, §3
as §4, with “equation, […]” for “equation,”

[3] = system: L-type calcium channel (α1C); experiment: Open-channel block of L-type channels, resting potential -100 mV; assay type: cell-based; conditions: 25 μM farnesol
Protocol: as §3
(§5) For some experiments, cells were prepared wherein the α1B unit was replaced by α1A (P/Q type) α1C (type L) or α1E (undefined). α1B represents N-type.
(§6) Immediately prior to recording, individual cover slips were transferred to a 3 cm culture dish containing an external recording solution. […] Data were filtered at 1 kHz and recorded directly on the hard drive of a personal computer. The data were analyzed using ClampFit (Axon Instruments). […]

[4] = system: α1E calcium channel; experiment: Open-channel block of α1E channels, resting potential -100 mV; assay type: cell-based; conditions: 25 μM farnesol
Protocol: as §3, §5, §6

[5] = system: P/Q type calcium channel (α1A); experiment: Open-channel block of P/Q-type channels, resting potential -100 mV; assay type: cell-based; conditions: 25 μM farnesol
Protocol: as §3, §5, §6

[6] = system: L-type calcium channel (α1C); experiment: Inactivation effect on L-type channels, resting potential -70 mV; assay type: cell-based; conditions: 250 nM farnesol
Protocol: as §3, §5, §6

[7] = system: L-type receptors; conditions: micromolar range; cited from earlier work
[8] = system: α1E calcium channel; experiment: Inactivation effect on α1E channels, resting potential -70 mV; assay type: cell-based; conditions: 250 nM farnesol
Protocol: as §3, §5, §6

[9] = system: P/Q type calcium channel (α1A); experiment: Inactivation effect on P/Q-type channels, resting potential -70 mV; assay type: cell-based; conditions: 250 nM farnesol
Protocol: as §3, §5, §6

[10] = corrected for control inactivation rate, linear fit

Structure (SMILES): CCCCCCCCCCCCN [dodecylamine]
Inactivated Block (shift in V0.5) [1]: ~ 10 mV | inhibition at 10 µM [2]: 90 to 100%

Structure (SMILES): CC(C)=CCCC(C)=CCCC(C)=CCO [farnesol]
channel type preference of open channel block [3]: preferentially inhibited | open channel blocking effect on current amplitudes [3]: diminished peak heights | open channel blocking effect on current amplitudes [4]: diminished peak heights | open channel blocking effect on current amplitudes [5]: diminished peak heights | peak current at -70 mV resting potential normalized to -100 mV [6]: Only the N-type channels show substantially diminished values | calcium-channel blocking, open channel blockage, channel preference [7]: preference for inhibition of L-type receptors | Inactivated Block (shift in V0.5) [1]: 10-25 mV | V0.5 ([1]; 100 nM farnesol): -70 mV | time course of development of current amplitude diminution ([1]; 100 nM farnesol, resting potential -70 mV): slower than that obtained at a resting potential of -100 mV | recovery from block ([1]; 100 nM farnesol, resting potential -70 mV, compared with open-channel blockage): much slower | peak current at -70 mV resting potential normalized to -100 mV ([1]; 250 nM farnesol): substantially diminished | reversibility of effect ([1]; 250 nM farnesol, holding -70 mV to test +10 mV): does not appear to be completely reversible | Z slope factor (Boltzman fit) ([1]; 25 μM farnesol): 3.8 | shift in V0.5 ([1]; 25 μM farnesol): about 20 mV | V0.5 (resting potential that diminishes peak currents to 1/2) ([1]; 25 μM farnesol present, mean values): -70 mV | Vh (Boltzman fit of steady state inactivation) ([1]; 25 μM farnesol, test potential +20 mV): -68.7 mV | Vh (Boltzman fit of steady state inactivation) ([1]; Wash, after 25 μM farnesol): -56.5 mV | Z slope factor (Boltzman fit) ([1]; Wash, after 25 μM farnesol): 4.0 | activity at 25 µM ([1]; read-out: peak current value (normalized to -100 mV resting potential)): 50% | activity at 25 µM ([1]; read-out: peak value as % of base value (normalized to -100 mV resting potential)): 80% | peak current at -70 mV resting potential normalized to -100 mV [8]: Only the N-type channels show substantially diminished values | peak current at -70 mV resting potential normalized to -100 mV [9]: Only the N-type channels show substantially diminished values | normalized peak height ([2]; 5 μM farnesol): diminished | time to decay of current to the resting level ([2]; 5 μM or 25 μM farnesol): accelerated time to decay to the resting level | position of peak amplitude with respect to depolarization voltage (current/voltage relationship) ([2]; 10 μM farnesol): no dependence | normalized peak height ([2]; 25 μM farnesol): further dramatically diminished | open channel blocking effect on current amplitudes ([2]; 25 μM farnesol, resting potential -100 mV): diminished peak heights | peak currents upon removal of farnesol (reversibility) ([2]; after 5 μM and 25 μM farnesol): regenerated | intercept of inverse time constant for current decay versus farnesol concentration [2, 10]: 7.6 | slope of inverse time constant for current decay versus farnesol concentration [2, 10]: 4.8 | inhibition at 10 µM [2]: 60%

Structure (SMILES): CCCCCCCCCCCC [dodecane]
Inactivated Block (shift in V0.5) [1]: ~ 10 mV | inactivation-type inhibition specific to the N-type receptor (summary in words) [1]: able to promote substantial inactivation-type inhibition | nonspecific open-channel blocking activity (summary in words) [2]: relatively lacking | inhibition at 10 µM [2]: 10 to 20%

Structure (SMILES): CC(C)CCCC(C)CCCC(C)CCCC(C)C (stereo not drawn)
Inactivated Block (shift in V0.5) [1]: ~ 10 mV | inactivation-type inhibition specific to the N-type receptor (summary in words) [1]: able to promote substantial inactivation-type inhibition | nonspecific open-channel blocking activity (summary in words) [2]: relatively lacking | Open/Resting Block (determined at 10 μM) [2]: < 10%

Structure (SMILES): CCCCCCCCCCN [decylamine]
Inactivated Block (shift in V0.5) [1]: ~ 10 mV | inhibition at 10 µM [2]: > 80%

The next lines start with results.

Inactivated Block (shift in V0.5) [1]: ~ 20 mV | nonspecific open-channel blocking activity (summary in words) [2]: relatively lacking | inhibition at 10 µM [2]: 20 to 30%
Structure (SMILES): CC(C)=CCCC(C)=CCCC(C)=CCBr [farnesyl bromide]
inactivation-type inhibition specific to the N-type receptor (summary in words) [1]: able to promote substantial inactivation-type inhibition

Open/Resting Block (determined at 10 μM) [2]: Not active
Structure (SMILES): CC(C)=CCCC(C)=CCCC(C)=CCOP(=O)(O)OP(=O)(O)O [farnesyl pyrophosphate]

Inactivated Block (shift in V0.5) [1]: ~ 20 mV | inhibition at 10 µM [2]: 90 to 100%
Structure (SMILES): CC(=O)OCC=C(C)CCC=C(C)CCC=C(C)C [farnesyl acetate]

Inactivated Block (shift in V0.5) [1]: ~ 10 mV | nonspecific open-channel blocking activity (summary in words) [2]: relatively lacking | Open/Resting Block (determined at 10 μM) [2]: Not active
Structure (SMILES): COC(=O)C=C(C)CCC=C(C)CCC1OC1(C)C (stereo not drawn) [juvenile hormone III]
inactivation-type inhibition specific to the N-type receptor (summary in words) [1]: able to promote substantial inactivation-type inhibition
